Source: patent US9879032B2, “Pyridine compounds” (Daiichi Sankyo Company, Limited, priority 2015, dated 2018)

Test system: plasma ALP (80-90% containing TNAP)
Experiment: Inhibitory test of plasma TNAP activity in B6 mouse
Assay type: in vivo
Details: administered orally, average inhibition from 0 hour to 6 hours after administration
Description: After blood sampling from the tail vein using a heparin-treated hematocrit capillary tube (EM Meister Hematocrit Capillary Tube, AS ONE Corp.) (as the sample before compound administration), each test compound suspended in a 0.5% methylcellulose solution (powder purchased from Wako Pure Chemical Industries, Ltd. was adjusted to 0.5% with Otsuka distilled water) was administered orally to the mouse. 1, 2, 4, 6, and 24 hours after the administration, blood was collected from the tail vein using a heparin-treated hematocrit capillary tube to obtain a plasma sample. The plasma sample was added to an assay buffer (1 M Tris, 1 M MgCl2, 20 mM ZnCl2, and water, pH 7.5), and the mixture was left standing for 5 minutes. Then, the absorbance at 405 nm was measured and used as a blank. The substrate pNPP was added to the plasma sample and incubated at room temperature for 180 minutes. Then, the absorbance (ABS: 405 nm) was measured using a microplate reader (model plus 384, Molecular Devices, LLC), and the concentration of produced p-nitrophenol was calculated. The blank was subtracted from all measurement values to calculate TNAP activity at each time point with the TNAP activity of the sample before compound administration defined as 100%. The pharmaceutical effect of the test compound was evaluated by the average inhibition of plasma ALP (80-90% containing TNAP) activity for 6 hours from 0 hour to 6 hours after the administration of the test compound. It was calculated according to the following expression: 100−((plasma ALP activity at 0 hr+plasma ALP activity at 1 hr)*1/2+(plasma ALP activity at 1 hr+plasma ALP activity at 2 hr)*1/2+(plasma ALP activity at 2 hr+plasma ALP activity at 4 hr)*2/2+(plasma ALP activity at 4 hr+plasma ALP activity at 6 hr)*2/2)/6.

Structure (SMILES)	Plasma ALP inhibition (6 h ave. inhibition %)
COc1ccc(Cl)cc1S(=O)(=O)[N-]c1cnc2c(c1)C(=O)NC1(CC1)CO2.[K+] [Example 55, Potassium [(5-chloro-2-methoxyphenyl)sulfonyl](5′-oxo-4′,5′-dihydrospiro[cyclopropane-1,3′-pyrido[3,2-f][1,4]oxazepin]-7′-yl)azanide]	58.9%
COc1ccc(F)cc1S(=O)(=O)[N-]c1cnc2c(c1)C(=O)NC1(CC1)CO2.[K+] [Example 57, Potassium [(5-fluoro-2-methoxyphenyl)sulfonyl](5′-oxo-4′,5′-dihydrospiro[cyclopropane-1,3′-pyrido[3,2-f][1,4]oxazepin]-7′-yl)azanide]	53.5%
CCOc1ccc(F)cc1S(=O)(=O)[N-]c1cnc2c(c1)C(=O)NC1(CC1)CO2.[K+] [Example 59]	66.2%
COc1ccc(Cl)cc1S(=O)(=O)[N-]c1cnc2c(c1)C(=O)N[C@@H](CO)CO2.[K+] [Example 51, Potassium [(5-chloro-2-methoxyphenyl)sulfonyl][(3S)-3-(hydroxymethyl)-5-oxo-2,3,4,5-tetrahydropyrido[3,2-f][1,4]oxazepin-7-yl]azanide]	63.7%
COc1ccc(Br)cc1S(=O)(=O)[N-]c1cnc2c(c1)C(=O)N[C@@H](CO)CO2.[K+] [Example 53, Potassium [(5-bromo-2-methoxyphenyl)sulfonyl][(3S)-3-(hydroxymethyl)-5-oxo-2,3,4,5-tetrahydropyrido[3,2-f][1,4]oxazepin-7-yl]azanide]	59.2%
COc1ccc(F)cc1S(=O)(=O)[N-]c1cnc2c(c1)C(=O)N[C@@H](CO)CO2.[K+] [Example 52, Potassium [(5-fluoro-2-methoxyphenyl)sulfonyl][(3S)-3-(hydroxymethyl)-5-oxo-2,3,4,5-tetrahydropyrido[3,2-f][1,4]oxazepin-7-yl]azanide]	61.3%
O=C1N[C@@H](CO)COc2ncc([N-]S(=O)(=O)c3cc(Cl)ccc3OC(F)(F)F)cc21.[K+] [Example 54, Potassium {[5-chloro-2-(trifluoromethoxy)phenyl]sulfonyl}[(3S)-3-(hydroxymethyl)-5-oxo-2,3,4,5-tetrahydropyrido[3,2-f][1,4]oxazepin-7-yl]azanide]	74.8%
COc1ccc(Cl)cc1S(=O)(=O)[N-]c1cnc2c(c1)C(=O)NCCO2.[K+] [Example 47, Potassium [(5-chloro-2-methoxyphenyl)sulfonyl](5-oxo-2,3,4,5-tetrahydropyrido[3,2-f][1,4]oxazepin-7-yl)azanide]	54.7%
